Source: US20250034136A1 (Nimbus Wadjet, Inc., priority 2023, published 2025)
Read-outs that look alike come from different tables or passages of the source.

Columns and labels:
[1] = molecular target: WRN (BV08), human Werner helicase (Uniprot Q14191, amino acids 517-1235 with L1074F point mutation) (Homo sapiens (Human), UniProt Q14191, L1074F); test: WRN (BV08) ADP-Glo assay; format: biochemical; conditions: class symbols A-E, read-out: ADP-Glo_hWRN_IC50
[2] = tested on: p21 induction in HCT116 cells; test: p21 induction in HCT116 cells; format: cell-based; conditions: HCT116 cells, 24 h compound incubation, read-out: P21_EC50
How it was run: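 EC50 from non-linear curve fit of p21 immunofluorescence (800 nm), with GAPDH (700 nm) read alongside. DMSO and a reference WRN inhibitor served as low and high controls. Cells (2,000/well) got 11 compound concentrations in duplicate for 24 h at 37 °C.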

Sequence of WRN (BV08), human Werner helicase (Uniprot Q14191, amino acids 517-1235 with L1074F point mutation) (Q14191 other isoform, or with tags, fused parts or gaps L1074F (already in the parent)): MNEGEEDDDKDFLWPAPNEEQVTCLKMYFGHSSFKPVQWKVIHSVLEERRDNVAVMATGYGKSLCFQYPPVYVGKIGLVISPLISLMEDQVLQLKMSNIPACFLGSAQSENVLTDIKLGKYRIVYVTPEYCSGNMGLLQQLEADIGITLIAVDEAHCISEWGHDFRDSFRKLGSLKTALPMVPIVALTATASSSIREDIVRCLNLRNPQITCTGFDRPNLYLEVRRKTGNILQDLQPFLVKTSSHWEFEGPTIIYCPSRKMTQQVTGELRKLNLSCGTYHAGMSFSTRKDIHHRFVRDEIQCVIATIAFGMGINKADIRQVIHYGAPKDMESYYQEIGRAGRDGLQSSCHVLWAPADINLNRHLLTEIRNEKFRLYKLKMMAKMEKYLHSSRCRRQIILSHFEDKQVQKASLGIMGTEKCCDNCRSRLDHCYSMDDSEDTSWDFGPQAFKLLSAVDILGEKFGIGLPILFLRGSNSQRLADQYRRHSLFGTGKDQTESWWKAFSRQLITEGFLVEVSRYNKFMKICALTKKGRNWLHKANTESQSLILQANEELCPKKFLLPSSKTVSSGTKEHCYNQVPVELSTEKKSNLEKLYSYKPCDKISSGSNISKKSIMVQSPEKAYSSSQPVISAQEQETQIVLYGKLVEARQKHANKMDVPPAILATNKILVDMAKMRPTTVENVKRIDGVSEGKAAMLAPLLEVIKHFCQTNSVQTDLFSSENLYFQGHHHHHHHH

| Compound | IC50 [1] | EC50 ([2]; Homo sapiens, HCT-116, 24 h) | EC50 [2] |
| --- | --- | --- | --- |
| CCc1c(N2CCN(C(=O)c3ncnc(C)c3O)[C@H]3CC[C@@H]32)c(=O)c2nc(N(C)C)cnc2n1CC(=O)Nc1ccc(C(F)(F)F)nc1Cl [I-222, N-[2-chloro-6-(trifluoromethyl)pyridin-3-yl]-2-[2-(dimethylamino)-6-ethyl-7-[(1S,6S)-5-(5-hydroxy-6-methylpyrimidine-4-carbonyl)-2,5-diazabicyclo[4.2.0]octan-2-yl]-8-oxo-5H,8H-pyrido[2,3-b]pyrazin-5-yl]acetamide] | 5 to 50 nM | < 500 nM |  |
| CCc1c(N2CCN(C(=O)c3ncnc(C)c3O)CC2)c(=O)c2nc(C3CCC3)cnc2n1CC(=O)Nc1ccc(C(F)(F)F)cc1Cl [I-223, N-[2-chloro-4-(trifluoromethyl)phenyl]-2-{2-cyclobutyl-6-ethyl-7-[4-(5-hydroxy-6-methylpyrimidine-4-carbonyl)piperazin-1-yl]-8-oxo-5H,8H-pyrido[2,3-b]pyrazin-5-yl} acetamide] | 5 to 50 nM | 500 to 2000 nM |  |
| CCc1c(N2CCN(C(=O)c3ncnc(C)c3O)CC2)c(=O)c2nc(N3CCCC34CC4)cnc2n1CC(=O)Nc1ccc(C(F)(F)F)cc1Cl [I-224, 2-(2-{4-azaspiro[2.4]heptan-4-yl}-6-ethyl-7-[4-(5-hydroxy-6-methylpyrimidine-4-carbonyl)piperazin-1-yl]-8-oxo-5H,8H-pyrido[2,3-b]pyrazin-5-yl)-N-[2-chloro-4-(trifluoromethyl)phenyl]acetamide] | 5 to 50 nM | 2000 to 5000 nM |  |
| CCc1c(N2CCN(C(=O)c3c(OC)ncc(C)c3O)C[C@@H]2C)c(=O)c2nc(C3CC3)cnc2n1CC(=O)Nc1ccc(C(F)(F)F)cc1Cl [I-225, N-[2-chloro-4-(trifluoromethyl)phenyl]-2-{2-cyclopropyl-6-ethyl-7-[(2S)-4-(4-hydroxy-2-methoxy-5-methylpyridine-3-carbonyl)-2-methylpiperazin-1-yl]-8-oxo-5H,8H-pyrido[2,3-b]pyrazin-5-yl}acetamide] | 5 to 50 nM | < 500 nM |  |
| [2H]C([2H])([2H])Nc1cnc2c(n1)c(=O)c(N1CCN(C(=O)c3ncnc(C)c3O)[C@H]3CC[C@@H]31)c(CC)n2CC(=O)Nc1ccc(C(F)(F)F)cc1Cl [I-226, N-[2-chloro-4-(trifluoromethyl)phenyl]-2-{6-ethyl-7-[(1S,6S)-5-(5-hydroxy-6-methylpyrimidine-4-carbonyl)-2,5-diazabicyclo[4.2.0]octan-2-yl]-2-[(methyl-d3)amino]-8-oxo-5H,8H-pyrido[2,3-b]pyrazin-5-yl}acetamide] | ≤ 5 nM | < 500 nM |  |
| CCc1c(N2CCN(C(=O)c3ncnc(C)c3O)[C@H]3CC[C@@H]32)c(=O)c2nc(NC)cnc2n1CC(=O)Nc1ccc(C(F)(F)F)cc1Cl [I-227, N-[2-chloro-4-(trifluoromethyl)phenyl]-2-{6-ethyl-7-[(1S,6S)-5-(5-hydroxy-6-methylpyrimidine-4-carbonyl)-2,5-diazabicyclo[4.2.0]octan-2-yl]-2-(methylamino)-8-oxo-5H,8H-pyrido[2,3-b]pyrazin-5-yl}acetamide] | ≤ 5 nM |  | < 500 nM |
| CCc1c(N2CCN(C(=O)c3c(OC)ncc(C)c3O)C[C@@H]2C)c(=O)c2nc(N(C)C)cnc2n1CC(=O)Nc1ccc(C(F)(F)F)cc1Cl [I-228, N-[2-chloro-4-(trifluoromethyl)phenyl]-2-[2-(dimethylamino)-6-ethyl-7-[(2S)-4-(4-hydroxy-2-methoxy-5-methylpyridine-3-carbonyl)-2-methylpiperazin-1-yl]-8-oxo-5H,8H-pyrido[2,3-b]pyrazin-5-yl]acetamide] | 5 to 50 nM | < 500 nM |  |
| CCc1c(C23CCN(C(=O)c4ncnc(C)c4O)CC2C3)c(=O)c2nc(N(C)C)cnc2n1CC(=O)Nc1ccc(C(F)(F)F)cc1Cl (centres unmarked) [I-229, N-[2-chloro-4-(trifluoromethyl)phenyl]-2-[2-(dimethylamino)-6-ethyl-7-[3-(5-hydroxy-6-methylpyrimidine-4-carbonyl)-3-azabicyclo[4.1.0]heptan-6-yl]-8-oxo-5H,8H-pyrido[2,3-b]pyrazin-5-yl]acetamide] | 5 to 50 nM | 500 to 2000 nM |  |
| CCc1c(N2CCN(C(=O)c3ncnc(C)c3O)[C@H]3CC[C@@H]32)c(=O)c2nc(N(C)C)cnc2n1CC(=O)Nc1cc(F)c(C(F)(F)F)cc1C [I-236, 2-[2-(dimethylamino)-6-ethyl-7-[(1S,6S)-5-(5-hydroxy-6-methylpyrimidine-4-carbonyl)-2,5-diazabicyclo[4.2.0]octan-2-yl]-8-oxo-5H,8H-pyrido[2,3-b]pyrazin-5-yl]-N-[5-fluoro-2-methyl-4-(trifluoromethyl)phenyl]acetamide] | 5 to 50 nM | < 500 nM |  |
| CCc1c(N2CCN(C(=O)c3c(OC)ncc(C)c3O)CC2)c(=O)c2nc(C3CC3)cnc2n1CC(=O)Nc1ccc(C(F)(F)F)cc1Cl [I-239, N-[2-chloro-4-(trifluoromethyl)phenyl]-2-{2-cyclopropyl-6-ethyl-7-[4-(4-hydroxy-2-methoxy-5-methylpyridine-3-carbonyl)piperazin-1-yl]-8-oxo-5H,8H-pyrido[2,3-b]pyrazin-5-yl} acetamide] | 5 to 50 nM | < 500 nM |  |
| CCc1c(N2CCN(C(=O)c3ncnc(C)c3O)[C@H]3CC[C@@H]32)c(=O)c2nc(N(C)C)cnc2n1CC(=O)Nc1ccc(C(F)F)cc1Cl [I-240, N-[2-chloro-4-(difluoromethyl)phenyl]-2-[2-(dimethylamino)-6-ethyl-7-[(1S,6S)-5-(5-hydroxy-6-methylpyrimidine-4-carbonyl)-2,5-diazabicyclo[4.2.0]octan-2-yl]-8-oxo-5H,8H-pyrido[2,3-b]pyrazin-5-yl]acetamide] | 5 to 50 nM | < 500 nM |  |
| CCc1c(N2CCN(C(=O)c3ncnc(C)c3O)[C@H]3CC[C@@H]32)c(=O)c2nc(-c3ccnn3C)cnc2n1CC(=O)Nc1ccc(C(F)(F)F)cc1Cl [I-241, N-[2-chloro-4-(trifluoromethyl)phenyl]-2-{6-ethyl-7-[(1S,6S)-5-(5-hydroxy-6-methylpyrimidine-4-carbonyl)-2,5-diazabicyclo[4.2.0]octan-2-yl]-2-(1-methyl-1H-pyrazol-5-yl)-8-oxo-5H,8H-pyrido[2,3-b]pyrazin-5-yl}acetamide] | ≤ 5 nM | < 500 nM |  |
| CCc1c(N2CCN(C(=O)c3ncnc(C)c3O)[C@H]3CC[C@@H]32)c(=O)c2nc(N3CC(OC)C3)cnc2n1CC(=O)Nc1ccc(C(F)(F)F)cc1Cl [I-242, N-[2-chloro-4-(trifluoromethyl)phenyl]-2-{6-ethyl-7-[(1S,6S)-5-(5-hydroxy-6-methylpyrimidine-4-carbonyl)-2,5-diazabicyclo[4.2.0]octan-2-yl]-2-(3-methoxyazetidin-1-yl)-8-oxo-5H,8H-pyrido[2,3-b]pyrazin-5-yl}acetamide] | 5 to 50 nM | < 500 nM |  |
| CCc1c(N2CCN(C(=O)c3c(OC)ncc(C)c3O)[C@H]3CCC[C@@H]32)c(=O)c2nc(N(C)C)cnc2n1CC(=O)Nc1ccc(C(F)(F)F)cc1Cl [I-243, 2-{7-[(4aS,7aS)-4-(4-hydroxy-2-methoxy-5-methylpyridine-3-carbonyl)-octahydro-1H-cyclopenta[b]pyrazin-1-yl]-2-(dimethylamino)-6-ethyl-8-oxo-5H,8H-pyrido[2,3-b]pyrazin-5-yl}-N-[2-chloro-4-(trifluoromethyl)phenyl]acetamide] | 5 to 50 nM | < 500 nM |  |
| CCc1c(N2CCN(C(=O)c3ncnc(C)c3O)C[C@@H]2CO)c(=O)c2nc(N(C)C)cnc2n1CC(=O)Nc1ccc(C(F)(F)F)cc1Cl [I-244, N-[2-chloro-4-(trifluoromethyl)phenyl]-2-[2-(dimethylamino)-6-ethyl-7-[(2R)-4-(5-hydroxy-6-methylpyrimidine-4-carbonyl)-2-(hydroxymethyl)piperazin-1-yl]-8-oxo-5H,8H-pyrido[2,3-b]pyrazin-5-yl]acetamide] | 5 to 50 nM | > 5000 nM |  |
| CCc1c(N2CCN(C(=O)c3ncnc(C)c3O)[C@H]3CC[C@@H]32)c(=O)c2nc(N3CC(F)(F)C3)cnc2n1CC(=O)Nc1ccc(C(F)(F)F)cc1Cl [I-245, N-[2-chloro-4-(trifluoromethyl)phenyl]-2-[2-(3,3-difluoroazetidin-1-yl)-6-ethyl-7-[(1S,6S)-5-(5-hydroxy-6-methylpyrimidine-4-carbonyl)-2,5-diazabicyclo[4.2.0]octan-2-yl]-8-oxo-5H,8H-pyrido[2,3-b]pyrazin-5-yl]acetamide] | 5 to 50 nM | < 500 nM |  |
| CCc1c(N2CCN(C(=O)c3ncnc(C)c3O)[C@H]3CC[C@@H]32)c(=O)c2nc(N3CC(C)(O)C3)cnc2n1CC(=O)Nc1ccc(C(F)(F)F)cc1Cl [I-246, N-[2-chloro-4-(trifluoromethyl)phenyl]-2-[6-ethyl-2-(3-hydroxy-3-methylazetidin-1-yl)-7-[(1S,6S)-5-(5-hydroxy-6-methylpyrimidine-4-carbonyl)-2,5-diazabicyclo[4.2.0]octan-2-yl]-8-oxo-5H,8H-pyrido[2,3-b]pyrazin-5-yl]acetamide] | 5 to 50 nM | 500 to 2000 nM |  |
| CCc1c(N2CCN(C(=O)c3ncnc(C)c3O)CC2(C)C)c(=O)c2nc(N(C)C)cnc2n1CC(=O)Nc1ccc(C(F)(F)F)cc1Cl [I-249, N-[2-chloro-4-(trifluoromethyl)phenyl]-2-[2-(dimethylamino)-6-ethyl-7-[4-(5-hydroxy-6-methylpyrimidine-4-carbonyl)-2,2-dimethylpiperazin-1-yl]-8-oxo-5H,8H-pyrido[2,3-b]pyrazin-5-yl]acetamide] | 5 to 50 nM | < 500 nM |  |
| CCc1c(N2CCN(C(=O)c3ncnc(C)c3O)[C@H]3CC[C@@H]32)c(=O)c2nc(N3CCOCC3)cnc2n1CC(=O)Nc1ccc(C(F)(F)F)cc1Cl [I-250, N-[2-chloro-4-(trifluoromethyl)phenyl]-2-{6-ethyl-7-[(1S,6S)-5-(5-hydroxy-6-methylpyrimidine-4-carbonyl)-2,5-diazabicyclo[4.2.0]octan-2-yl]-2-(morpholin-4-yl)-8-oxo-5H,8H-pyrido[2,3-b]pyrazin-5-yl}acetamide] | 5 to 50 nM | < 500 nM |  |
